From patent US9109004B2, “Progesterone receptor antagonists” (Bayer Intellectual Property GmbH, priority 2010, dated 2015)

Legend:
[1] = target: T1, human progesterone receptor A (Homo sapiens, UniProt P06401); assay: Progesterone-receptor-antagonistic action in stably transfected SK-N-MC cells, MTV-LUC reporter (PR-A); format: cell-based; settings: antagonistic potency vs 0.1 nmol/l promegestone, 24 hours, luciferase
T1 construct: expressed in transfected cells; host or cells: SK-N-MC human neuroblastoma cells, stably transfected
T1 sequence (P06401 1-769 isoform P06401-2): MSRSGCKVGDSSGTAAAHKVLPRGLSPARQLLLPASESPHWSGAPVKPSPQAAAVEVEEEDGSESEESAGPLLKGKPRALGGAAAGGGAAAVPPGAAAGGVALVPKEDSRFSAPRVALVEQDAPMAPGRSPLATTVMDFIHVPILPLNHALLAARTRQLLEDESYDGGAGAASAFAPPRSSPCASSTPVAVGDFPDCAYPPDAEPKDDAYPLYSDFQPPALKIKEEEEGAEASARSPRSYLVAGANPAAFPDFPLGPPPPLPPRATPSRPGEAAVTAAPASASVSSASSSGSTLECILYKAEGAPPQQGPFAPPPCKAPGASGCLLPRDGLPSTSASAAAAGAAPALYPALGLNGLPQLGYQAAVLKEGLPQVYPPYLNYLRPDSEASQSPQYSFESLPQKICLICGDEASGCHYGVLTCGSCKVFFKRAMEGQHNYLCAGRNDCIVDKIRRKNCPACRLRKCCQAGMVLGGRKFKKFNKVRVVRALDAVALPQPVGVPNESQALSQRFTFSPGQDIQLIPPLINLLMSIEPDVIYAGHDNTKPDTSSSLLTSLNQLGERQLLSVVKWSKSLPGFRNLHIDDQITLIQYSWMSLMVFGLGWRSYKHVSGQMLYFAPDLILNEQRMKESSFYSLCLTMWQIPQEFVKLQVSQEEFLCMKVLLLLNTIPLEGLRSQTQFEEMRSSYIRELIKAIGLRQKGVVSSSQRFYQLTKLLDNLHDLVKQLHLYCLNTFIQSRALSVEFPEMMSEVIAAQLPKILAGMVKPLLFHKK
Summary of the method: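 SK-N-MC neuroblastoma cells stably expressing human PR-B or PR-A plus MMTV-LUC reporter, treated 24 h with 0.1 nmol/l promegestone plus test compound at 0.01 nmol/l–1 μmol/l. Luciferase in lysates read as RLU; values as % efficacy and IC50.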

[2] = target: T2, human progesterone receptor B (Homo sapiens, UniProt P06401); assay: Progesterone-receptor-antagonistic action in stably transfected SK-N-MC cells, MTV-LUC reporter (PR-B); format: cell-based; settings: antagonistic potency vs 0.1 nmol/l promegestone, 24 hours, luciferase
T2 construct: expressed in transfected cells; host or cells: SK-N-MC human neuroblastoma cells, stably transfected
T2 sequence (P06401 1-933): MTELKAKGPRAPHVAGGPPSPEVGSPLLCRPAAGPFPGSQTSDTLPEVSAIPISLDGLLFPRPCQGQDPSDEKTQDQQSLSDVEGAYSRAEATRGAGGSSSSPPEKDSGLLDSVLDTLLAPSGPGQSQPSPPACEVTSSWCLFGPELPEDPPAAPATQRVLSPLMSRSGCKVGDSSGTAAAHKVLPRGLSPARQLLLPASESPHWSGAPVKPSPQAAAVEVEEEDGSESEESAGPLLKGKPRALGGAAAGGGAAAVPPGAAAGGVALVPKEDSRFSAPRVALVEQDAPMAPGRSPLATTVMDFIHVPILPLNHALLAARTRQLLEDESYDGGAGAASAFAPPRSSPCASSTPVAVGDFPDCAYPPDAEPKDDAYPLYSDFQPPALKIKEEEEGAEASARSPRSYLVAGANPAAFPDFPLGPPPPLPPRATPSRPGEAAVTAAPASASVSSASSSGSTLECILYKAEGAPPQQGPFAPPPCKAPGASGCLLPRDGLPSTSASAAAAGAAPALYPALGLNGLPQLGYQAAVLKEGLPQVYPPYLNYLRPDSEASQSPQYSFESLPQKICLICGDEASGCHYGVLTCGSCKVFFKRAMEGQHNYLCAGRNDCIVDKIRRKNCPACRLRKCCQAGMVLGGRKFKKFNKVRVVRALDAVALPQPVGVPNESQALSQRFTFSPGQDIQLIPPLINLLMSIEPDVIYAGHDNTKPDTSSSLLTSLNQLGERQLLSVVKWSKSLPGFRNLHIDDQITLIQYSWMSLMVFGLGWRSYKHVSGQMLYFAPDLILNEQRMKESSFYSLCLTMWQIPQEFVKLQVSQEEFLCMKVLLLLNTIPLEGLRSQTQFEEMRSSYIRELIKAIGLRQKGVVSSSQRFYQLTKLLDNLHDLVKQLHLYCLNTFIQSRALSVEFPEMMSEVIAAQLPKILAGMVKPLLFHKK
Procedure: Progesterone-Receptor-Antagonistic Action in Stable Transfectants of Human Neuroblastoma Cells (SK-N-MC Cells) with the Human Progesterone A or Progesterone B Receptor and an MTV-LUC Reporter Construct
SK-N-MC cells (human neuroblastoma cells) that have been stably transfected with plasmids that express the human progesterone receptor B (pRChPR-B-neo) or the human progesterone receptor A (pRChPR-A-neo) and a reporter construct (pMMTV-LUC), were incubated for 24 hours either in the absence (negative control) or in the presence of increasing amounts of the particular test compound (0.01 nmol/l, 0.1 nmol/l, 1 nmol/l, 10 nmol/l, 100 nmol/l and 1 μmol/l), to determine the agonistic efficacy. As positive control of reporter gene induction, the cells were treated with the synthetic gestagen promegestone (0.01 nmol/l, 0.1 nmol/l, 1 nmol/l, 10 nmol/l, 100 nmol/l and 1 μmol/l). For determination of the antagonistic activity, the cells were treated with 0.1 nmol/l promegestone and additionally with increasing amounts of the particular test compound (0.01 nmol/l, 0.1 nmol/l, 1 nmol/l, 10 nmol/l, 100 nmol/l and 1 μmol/l). The activity of the reporter gene LUC (LUC=luciferase) was determined in the cell lysates and was measured as RLU (relative light units). All measured values are given as % efficacy and as EC50 or IC50 concentrations.

| Compound | IC50 [1] | IC50 [2] |
| --- | --- | --- |
| C[C@]12C[C@H](c3ccc(C(=O)N4CCNCC4)cc3)C3=C4CCC(=O)C=C4CC[C@H]3[C@@H]1CC[C@@]2(O)C(F)(F)C(F)(F)F [Example 73, (11β,17β)-17-Hydroxy-17-(pentafluoroethyl)-11-[4-(piperazin-1-ylcarbonyl)phenyl]estra-4,9-dien-3-one] | 47 nM | 120 nM |
| CN(C)C(=O)c1ccc([C@H]2C[C@@]3(C)[C@@H](CC[C@@]3(O)C(F)(F)C(F)(F)F)[C@@H]3CCC4=CC(=O)CCC4=C32)cc1 [Example 2, 4-[(11β,17β)-17-Hydroxy-3-oxo-17-(pentafluoroethyl)estra-4,9-dien-11-yl]-N,N-dimethylbenzamide] | 2.3 nM | 1.2 nM |
| CN(C)CCN(C)C(=O)c1ccc([C@H]2C[C@@]3(C)[C@@H](CC[C@@]3(O)C(F)(F)C(F)(F)F)[C@@H]3CCC4=CC(=O)CCC4=C32)cc1 [Example 9, N-[2-(dimethylamino)ethyl]-4-[(11β,17β)-17-hydroxy-3-oxo-17-(pentafluoroethyl)estra-4,9-dien-11-yl]-N-methylbenzamide] | 23 nM | 18 nM |
| CN1CCN(C(=O)c2ccc([C@H]3C[C@@]4(C)[C@@H](CC[C@@]4(O)C(F)(F)C(F)(F)F)[C@@H]4CCC5=CC(=O)CCC5=C43)cc2)CC1 [Example 3, (11β,17β)-17-hydroxy-11-{4-[(4-methylpiperazin-1-yl)carbonyl]phenyl}-17-(pentafluoroethyl)estra-4,9-dien-3-one] | 24 nM | 44 nM |
| COC(=O)c1ccccc1NC(=O)c1ccc([C@H]2C[C@@]3(C)[C@@H](CC[C@@]3(O)C(F)(F)C(F)(F)F)[C@@H]3CCC4=CC(=O)CCC4=C32)cc1 [Example 10, methyl-2-({4-[(11β,17β)-17-hydroxy-3-oxo-17-(pentafluoroethyl)estra-4,9-dien-11-yl]benzoyl}amino)benzoate] | 0.7 nM | 1 nM |
| CN(C)CCNC(=O)c1ccc([C@H]2C[C@@]3(C)[C@@H](CC[C@@]3(O)C(F)(F)C(F)(F)F)[C@@H]3CCC4=CC(=O)CCC4=C32)cc1 [Example 7, N-[2-(dimethylamino)ethyl]-4-[(11β,17β)-17-hydroxy-3-oxo-17-(pentafluoroethyl)estra-4,9-dien-11-yl]benzamide] | 54 nM | 30 nM |

Continued by falling IC50 [1], values first:

| IC50 [1] | IC50 [2] | Compound |
| --- | --- | --- |
| 47 nM | 33 nM | CN(C)CCCNC(=O)c1ccc([C@H]2C[C@@]3(C)[C@@H](CC[C@@]3(O)C(F)(F)C(F)(F)F)[C@@H]3CCC4=CC(=O)CCC4=C32)cc1 [Example 8, N-[3-(dimethylamino)propyl]-4-[(11β,17β)-17-hydroxy-3-oxo-17-(pentafluoroethyl)estra-4,9-dien-11-yl]benzamide] |
| 23 nM | 10 nM | C[C@]12C[C@H](c3ccc(C(=O)N4CCC(C(=O)O)CC4)cc3)C3=C4CCC(=O)C=C4CC[C@H]3[C@@H]1CC[C@@]2(O)C(F)(F)C(F)(F)F [Example 75, 1-{4-[(11β,17β)-17-Hydroxy-3-oxo-17-(pentafluoroethyl)estra-4,9-dien-11-yl]benzoyl}piperidine-4-carboxylic acid] |
| 20 nM | – | C[C@]12C[C@H](c3ccc(C(=O)NCc4ccc(Cl)cc4)cc3)C3=C4CCC(=O)C=C4CC[C@H]3[C@@H]1CC[C@@]2(O)C(F)(F)C(F)(F)F [Example 36, N-(4-chlorobenzyl)-4-[(11β,17β)-17-hydroxy-3-oxo-17-(pentafluoroethyl)estra-4,9-dien-11-yl]benzamide] |
| 9.1 nM | 11 nM | COC(=O)C1CCN(C(=O)c2ccc([C@H]3C[C@@]4(C)[C@@H](CC[C@@]4(O)C(F)(F)C(F)(F)F)[C@@H]4CCC5=CC(=O)CCC5=C43)cc2)CC1 [Example 6, methyl-1-{4-[(11β,17β)-17-hydroxy-3-oxo-17-(pentafluoroethyl)estra-4,9-dien-11-yl]benzoyl}piperidine-4-carboxylate] |
| 6.7 nM | 12 nM | CC(=O)N1CCN(C(=O)c2ccc([C@H]3C[C@@]4(C)[C@@H](CC[C@@]4(O)C(F)(F)C(F)(F)F)[C@@H]4CCC5=CC(=O)CCC5=C43)cc2)CC1 [Example 74, (11β,17β)-11-{4-[(4-Acetylpiperazin-1-yl)carbonyl]phenyl}-17-hydroxy-17-(pentafluoroethyl)estra-4,9-dien-3-one] |
| 4.7 nM | 5 nM | C[C@]12C[C@H](c3ccc(C(=O)N4CCCCC4)cc3)C3=C4CCC(=O)C=C4CC[C@H]3[C@@H]1CC[C@@]2(O)C(F)(F)C(F)(F)F [Example 5, (11β,17β)-17-hydroxy-17-(pentafluoroethyl)-11-[4-(piperidin-1-ylcarbonyl)phenyl]estra-4,9-dien-3-one] |
| 2.5 nM | – | C[C@]12C[C@H](c3ccc(C(=O)NCCc4cccnc4)cc3)C3=C4CCC(=O)C=C4CC[C@H]3[C@@H]1CC[C@@]2(O)C(F)(F)C(F)(F)F [Example 55, 4-[(11β,17β)-17-hydroxy-3-oxo-17-(pentafluoroethyl)estra-4,9-dien-11-yl]-N-[2-(pyridin-3-yl)ethyl]benzamide] |
| 0.62 nM | 1.6 nM | CC(C)(C)OC(=O)N1CCN(C(=O)c2ccc([C@H]3C[C@@]4(C)[C@@H](CC[C@@]4(O)C(F)(F)C(F)(F)F)[C@@H]4CCC5=CC(=O)CCC5=C43)cc2)CC1 [Example 4, tert-butyl-4-{4-[(11β,17β)-17-hydroxy-3-oxo-17-(pentafluoroethyl)estra-4,9-dien-11-yl]benzoyl}piperazine-1-carboxylate] |
